# Experimental data from patent US10316028B2, “Orexin receptor antagonists” (Heptares Therapeutics Limited, priority 2012, dated 2019).
# Target: T1, human Orexin-2 receptor (Homo sapiens, UniProt O43614)
# T1 construct: expressed in transfected cells; host or cells: HEK293 cells (transient transfection, Genejuice); membranes
# T1 sequence (O43614 1-444): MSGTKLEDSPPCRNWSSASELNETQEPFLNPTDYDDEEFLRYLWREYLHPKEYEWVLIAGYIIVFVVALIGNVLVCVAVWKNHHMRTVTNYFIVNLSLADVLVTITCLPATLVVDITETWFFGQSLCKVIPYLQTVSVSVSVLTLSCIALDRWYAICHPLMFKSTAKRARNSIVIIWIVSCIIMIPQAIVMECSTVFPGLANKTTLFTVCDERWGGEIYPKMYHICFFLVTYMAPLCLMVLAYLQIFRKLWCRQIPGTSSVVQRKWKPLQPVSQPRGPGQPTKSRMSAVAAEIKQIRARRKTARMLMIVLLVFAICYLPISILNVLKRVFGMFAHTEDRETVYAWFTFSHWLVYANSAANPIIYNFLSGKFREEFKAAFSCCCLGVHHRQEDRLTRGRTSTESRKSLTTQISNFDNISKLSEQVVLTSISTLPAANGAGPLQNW
# Experiment: 3H-EMPA radioligand binding assay
# Conditions: 3H-EMPA displacement, membranes of HEK293 cells transfected with human Orexin-2 receptor; KI by Cheng-Prussoff; read-out: OX2 pKi ave (converted)
# Procedure: cDNA encoding the human Orexin-2 receptor was transfected into HEK293 cells using the transfection reagent Genejuice (Novagen). Forty-eight hours after transfection, cells were harvested and washed twice with ice cold phosphate-buffered saline. The pellet was resuspended in ice-cold buffer containing 20 mM Tris-HCl, pH 7.4, 1 mM EDTA and homogenised with an Ultraturax for 30 s at maximum speed. After centrifugation at 48,000 g for 30 min at 4° C., the pellet was resuspended and spun again. The final pellet was resuspended and frozen at −80° C. before use. Protein concentration was determined using the BCA protein assay method.
# ^3H-EMPA Radioligand Binding Assay
# At the end of the incubation, membranes were filtered onto a unifilter, a 96-well white microplate with bonded GF/B filter pre-incubated with 0.5% polyethylenimine, with a Tomtec cell harvester and washed 4 times with distilled water. […] Radioactivity on the filter was counted (1 min) on a microbeta counter after addition of 50 µL of scintillation fluid. […] IC50 values were derived from the inhibition curve and the equilibrium dissociation constant (KI) values were calculated using the Cheng-Prussoff equation.
structure (smiles),measurement,value
"COc1ccc(N2C(=O)N(Cc3ccc4c(c3)OCO4)c3ccccc3S2(=O)=O)cc1OC [Example 1, 4-(1,3-benzodioxol-5-ylmethyl)-2-(3,4-dimethoxyphenyl)-2H-1,2,4-benzothiadiazin-3(4H)-one 1,1-dioxide]",Ki,316 nM
"COc1ccc(CN2C(=O)N(c3ccc(OC)c(OC)c3)S(=O)(=O)c3ccccc32)cc1F [Example 2, 2-(3,4-dimethoxyphenyl)-4-(3-fluoro-4-methoxybenzyl)-2H-1,2,4-benzothiadiazin-3(4H)-one 1,1-dioxide]",Ki,141 nM
"COc1cccc(CN2C(=O)N(c3cc(OC)cc(OC)c3)S(=O)(=O)c3ccccc32)c1 [Example 3, 2-(3,5-dimethoxyphenyl)-4-(3-methoxybenzyl)-2H-1,2,4-benzothiadiazin-3(4H)-one 1,1-dioxide]",Ki,447 nM
"COc1ccc(N2C(=O)N(Cc3cccc(C#N)c3)c3ccccc3S2(=O)=O)cc1OC [Example 4, 3-{[2-(3,4-dimethoxyphenyl)-1,1-dioxido-3-oxo-2,3-dihydro-4H-1,2,4-benzothiadiazin-4-yl]methyl}benzonitrile]",Ki,355 nM
"COc1ccc(N2C(=O)N(Cc3ccccc3)c3ccccc3S2(=O)=O)cc1OC [Example 5, 4-benzyl-2-(3,4-dimethoxyphenyl)-2H-1,2,4-benzothiadiazin-3(4H)-one 1,1-dioxide]",Ki,89.1 nM
"COc1cc(OC)cc(N2C(=O)N(Cc3cccc(C)c3)c3ccccc3S2(=O)=O)c1 [Example 6, 2-(3,5-dimethoxyphenyl)-4-(3-methylbenzyl)-2H-1,2,4-benzothiadiazin-3(4H)-one 1,1-dioxide]",Ki,468 nM
"COc1ccc(N2C(=O)N(Cc3ccc(C)cc3)c3ccccc3S2(=O)=O)cc1OC [Example 7, 2-(3,4-dimethoxyphenyl)-4-(4-methylbenzyl)-2H-1,2,4-benzothiadiazin-3(4H)-one 1,1-dioxide]",Ki,37.2 nM
"COc1ccc(N2C(=O)N(Cc3ccc(F)cc3)c3ccccc3S2(=O)=O)cc1OC [Example 8, 2-(3,4-dimethoxyphenyl)-4-(4-fluorobenzyl)-2H-1,2,4-benzothiadiazin-3(4H)-one 1,1-dioxide]",Ki,56.2 nM
"CSc1cccc(N2C(=O)N(Cc3cccc(Br)c3)c3ccccc3S2(=O)=O)c1 [Example 9, 4-(3-bromobenzyl)-2-[3-(methylsulfanyl)phenyl]-2H-1,2,4-benzothiadiazin-3(4H)-one 1,1-dioxide]",Ki,35.5 nM
"COc1cccc(N2C(=O)N(Cc3ccc(OC)c(F)c3)c3ccccc3S2(=O)=O)c1 [Example 10, 4-(3-fluoro-4-methoxybenzyl)-2-(3-methoxyphenyl)-2H-1,2,4-benzothiadiazin-3(4H)-one 1,1-dioxide]",Ki,117 nM
"CCc1cccc(N2C(=O)N(Cc3ccc(OC)c(F)c3)c3ccccc3S2(=O)=O)c1 [Example 11, 2-(3-ethylphenyl)-4-(3-fluoro-4-methoxybenzyl)-2H-1,2,4-benzothiadiazin-3(4H)-one 1,1-dioxide]",Ki,47.9 nM
"Cc1ccc(N2C(=O)N(Cc3cccc(F)c3)c3ccccc3S2(=O)=O)cc1Cl [Example 12, 4-(3-fluorobenzyl)-2-(3-chloro-4-methylphenyl)-2H-1,2,4-benzothiadiazin-3(4H)-one 1,1-dioxide]",Ki,34.7 nM
"COc1cc(OC)cc(N2C(=O)N(Cc3ccccc3F)c3ccccc3S2(=O)=O)c1 [Example 13, 2-(3,5-dimethoxyphenyl)-4-(2-fluorobenzyl)-2H-1,2,4-benzothiadiazin-3(4H)-one 1,1-dioxide]",Ki,26.9 nM
"COc1cccc(N2C(=O)N(Cc3ccccc3F)c3ccccc3S2(=O)=O)c1 [Example 14, 4-(2-fluorobenzyl)-2-(3-methoxyphenyl)-2H-1,2,4-benzothiadiazin-3(4H)-one 1,1-dioxide]",Ki,200 nM
"COc1cc(OC)cc(N2C(=O)N(Cc3ccccc3C)c3ccccc3S2(=O)=O)c1 [Example 15, 2-(3,5-dimethoxyphenyl)-4-(2-methylbenzyl)-2H-1,2,4-benzothiadiazin-3(4H)-one 1,1-dioxide]",Ki,29.5 nM
"COc1cc(OC)cc(N2C(=O)N(Cc3ccccc3Cl)c3ccccc3S2(=O)=O)c1 [Example 16, 4-(2-chlorobenzyl)-2-(3,5-dimethoxyphenyl)-2H-1,2,4-benzothiadiazin-3(4H)-one 1,1-dioxide]",Ki,31.6 nM
"COC(=O)c1ccc(OC)c(CN2C(=O)N(c3cc(OC)cc(OC)c3)S(=O)(=O)c3ccccc32)c1 [Example 17, methyl 3-{[2-(3,5-dimethoxyphenyl)-1,1-dioxido-3-oxo-2,3-dihydro-4H-1,2,4-benzothiadiazin-4-yl]methyl}-4-methoxybenzoate]",Ki,13.5 nM
"COc1ccc(N2C(=O)N(Cc3ccccc3C)c3ccccc3S2(=O)=O)cc1OC [Example 18, 2-(3,4-dimethoxyphenyl)-4-(2-methylbenzyl)-2H-1,2,4-benzothiadiazin-3(4H)-one 1,1-dioxide]",Ki,14.8 nM
"COc1ccc(N2C(=O)N(Cc3ccccc3Cl)c3ccccc3S2(=O)=O)cc1OC [Example 19, 4-(2-chlorobenzyl)-2-(3,4-dimethoxyphenyl)-2H-1,2,4-benzothiadiazin-3(4H)-one 1,1-dioxide]",Ki,18.6 nM
"COc1ccc(N2C(=O)N(Cc3c(F)cccc3Cl)c3ccccc3S2(=O)=O)cc1OC [Example 20, 4-(2-chloro-6-fluorobenzyl)-2-(3,4-dimethoxyphenyl)-2H-1,2,4-benzothiadiazin-3(4H)-one 1,1-dioxide]",Ki,0.741 nM
"COc1ccc(N2C(=O)N(Cc3ccc(F)cc3Cl)c3ccccc3S2(=O)=O)cc1OC [Example 21, 4-(2-chloro-4-fluorobenzyl)-2-(3,4-dimethoxyphenyl)-2H-1,2,4-benzothiadiazin-3(4H)-one 1,1-dioxide]",Ki,23.4 nM
"CSc1cccc(N2C(=O)N(Cc3ccccc3Cl)c3ccccc3S2(=O)=O)c1 [Example 22, 4-(2-chlorobenzyl)-2-[3-(methylsulfanyl)phenyl]-2H-1,2,4-benzothiadiazin-3(4H)-one 1,1-dioxide]",Ki,23.4 nM
"CSc1cccc(N2C(=O)N(Cc3ccccc3F)c3ccccc3S2(=O)=O)c1 [Example 23, 4-(2-fluorobenzyl)-2-[3-(methylsulfanyl)phenyl]-2H-1,2,4-benzothiadiazin-3(4H)-one 1,1-dioxide]",Ki,20.9 nM
"O=C1N(Cc2c(F)cccc2Cl)c2ccccc2S(=O)(=O)N1c1ccc(Cl)cc1 [Example 24, 4-(2-chloro-6-fluorobenzyl)-2-(4-chlorophenyl)-2H-1,2,4-benzothiadiazin-3(4H)-one 1,1-dioxide]",Ki,7.08 nM
"Cc1ccc(N2C(=O)N(Cc3c(F)cccc3Cl)c3ccccc3S2(=O)=O)cc1Cl [Example 25, 4-(2-chloro-6-fluorobenzyl)-2-(3-chloro-4-methylphenyl)-2H-1,2,4-benzothiadiazin-3(4H)-one 1,1-dioxide]",Ki,2.51 nM
"O=C1N(Cc2c(F)cccc2Cl)c2ccccc2S(=O)(=O)N1c1ccccc1 [Example 26, 4-(2-chloro-6-fluorobenzyl)-2-phenyl-2H-1,2,4-benzothiadiazin-3(4H)-one 1,1-dioxide]",Ki,79.4 nM
"Cc1cc(C)cc(N2C(=O)N(Cc3c(F)cccc3Cl)c3ccccc3S2(=O)=O)c1 [Example 27, 4-(2-chloro-6-fluorobenzyl)-2-(3,5-dimethylphenyl)-2H-1,2,4-benzothiadiazin-3(4H)-one 1,1-dioxide]",Ki,0.631 nM
"Cc1ccc(N2C(=O)N(Cc3c(F)cccc3Cl)c3ccccc3S2(=O)=O)cc1 [Example 28, 4-(2-chloro-6-fluorobenzyl)-2-(4-methylphenyl)-2H-1,2,4-benzothiadiazin-3(4H)-one 1,1-dioxide]",Ki,5.62 nM
"CCOc1ccc(N2C(=O)N(Cc3c(F)cccc3Cl)c3ccccc3S2(=O)=O)cc1 [Example 29, 4-(2-chloro-6-fluorobenzyl)-2-(4-ethoxyphenyl)-2H-1,2,4-benzothiadiazin-3(4H)-one 1,1-dioxide]",Ki,31.6 nM
"CC(=O)c1ccc(N2C(=O)N(Cc3c(F)cccc3Cl)c3ccccc3S2(=O)=O)cc1 [Example 30, 2-(4-acetylphenyl)-4-(2-chloro-6-fluorobenzyl)-2H-1,2,4-benzothiadiazin-3(4H)-one 1,1-dioxide]",Ki,20 nM
"Cc1cccc(N2C(=O)N(Cc3c(F)cccc3Cl)c3ccccc3S2(=O)=O)c1 [Example 31, 4-(2-chloro-6-fluorobenzyl)-2-(3-methylphenyl)-2H-1,2,4-benzothiadiazin-3(4H)-one 1,1-dioxide]",Ki,10.5 nM
"Cc1ccc(C)c(N2C(=O)N(Cc3c(F)cccc3Cl)c3ccccc3S2(=O)=O)c1 [Example 32, 4-(2-chloro-6-fluorobenzyl)-2-(2,5-dimethylphenyl)-2H-1,2,4-benzothiadiazin-3(4H)-one 1,1-dioxide]",Ki,28.2 nM
"CCc1ccccc1N1C(=O)N(Cc2c(F)cccc2Cl)c2ccccc2S1(=O)=O [Example 33, 4-(2-chloro-6-fluorobenzyl)-2-(2-ethylphenyl)-2H-1,2,4-benzothiadiazin-3(4H)-one 1,1-dioxide]",Ki,28.2 nM
